In the NIST ThermoML archive (doi:10.1021/je049685z):

Test: xn = mol fraction of the nth substance listed
Conditions: Liquid

Cc1ccccc1 [toluene] + CCCO
mass density [kg/m3]
Conditions	100 kPa	5000 kPa	10000 kPa	15000 kPa	20000 kPa	25000 kPa	30000 kPa
303.15 K, x2 = 0	857.4	861.3	865.1	868.7	872.3	875.6	878.9
303.15 K, x2 = 0.2	847.5	851.5	855.3	859	862.5	865.9	869.2
303.15 K, x2 = 0.4	837.2	841.2	845	848.7	852.2	855.7	858.9
303.15 K, x2 = 0.6	825.9	829.9	833.7	837.4	840.9	844.3	847.5
303.15 K, x2 = 0.8	812.4	816.4	820.2	823.8	827.3	830.7	834
313.15 K, x2 = 0	848.1	852.1	856.2	860	863.7	867.2	870.7
313.15 K, x2 = 0.2	838.1	842.2	846.3	850.2	853.9	857.5	860.9
313.15 K, x2 = 0.4	828	832	836.1	840	843.7	847.3	850.7
313.15 K, x2 = 0.6	816.9	821	825	828.9	832.6	836.1	839.5
313.15 K, x2 = 0.8	803.8	807.8	811.9	815.8	819.4	823	826.3
323.15 K, x2 = 0	838.6	842.9	847.2	851.2	855.1	858.9	862.5
323.15 K, x2 = 0.2	828.5	832.9	837.2	841.3	845.2	849	852.6
323.15 K, x2 = 0.4	818.3	822.7	827	831.1	835	838.8	842.4
323.15 K, x2 = 0.6	807.4	811.8	816.1	820.2	824.1	827.9	831.5
323.15 K, x2 = 0.8	794.7	799.1	803.4	807.4	811.3	815	818.6
333.15 K, x2 = 0	829.2	833.7	838.2	842.5	846.6	850.5	854.3
333.15 K, x2 = 0.2	818.7	823.3	827.9	832.3	836.4	840.4	844.2
333.15 K, x2 = 0.4	808.5	813.1	817.8	822.1	826.3	830.3	834.1
333.15 K, x2 = 0.6	797.9	802.5	807.1	811.4	815.6	819.5	823.3
333.15 K, x2 = 0.8	785.6	790.2	794.7	799	803.1	807	810.8
